One compound from ChEMBL document CHEMBL1139649, “Hetaryl imidazoles: a novel dual inhibitors of VEGF receptors I and II” (Bioorg Med Chem Lett, 2006) can be followed below.

The target in data set [1] is Insulin-like growth factor 1 receptor (Homo sapiens) (UniProt P08069). Put plainly: […] against IGF1R at 10 uM by HTRF method. For orientation: Time-resolved FRET reads energy transfer from a long-lived donor to a nearby acceptor.
Data set [2] deals with T1, Vascular endothelial growth factor receptor 2 (Homo sapiens, UniProt P35968). In words: Inhibition of VEGFR2 by enzymatic assay.
T1 sequence (P35968 whole entry): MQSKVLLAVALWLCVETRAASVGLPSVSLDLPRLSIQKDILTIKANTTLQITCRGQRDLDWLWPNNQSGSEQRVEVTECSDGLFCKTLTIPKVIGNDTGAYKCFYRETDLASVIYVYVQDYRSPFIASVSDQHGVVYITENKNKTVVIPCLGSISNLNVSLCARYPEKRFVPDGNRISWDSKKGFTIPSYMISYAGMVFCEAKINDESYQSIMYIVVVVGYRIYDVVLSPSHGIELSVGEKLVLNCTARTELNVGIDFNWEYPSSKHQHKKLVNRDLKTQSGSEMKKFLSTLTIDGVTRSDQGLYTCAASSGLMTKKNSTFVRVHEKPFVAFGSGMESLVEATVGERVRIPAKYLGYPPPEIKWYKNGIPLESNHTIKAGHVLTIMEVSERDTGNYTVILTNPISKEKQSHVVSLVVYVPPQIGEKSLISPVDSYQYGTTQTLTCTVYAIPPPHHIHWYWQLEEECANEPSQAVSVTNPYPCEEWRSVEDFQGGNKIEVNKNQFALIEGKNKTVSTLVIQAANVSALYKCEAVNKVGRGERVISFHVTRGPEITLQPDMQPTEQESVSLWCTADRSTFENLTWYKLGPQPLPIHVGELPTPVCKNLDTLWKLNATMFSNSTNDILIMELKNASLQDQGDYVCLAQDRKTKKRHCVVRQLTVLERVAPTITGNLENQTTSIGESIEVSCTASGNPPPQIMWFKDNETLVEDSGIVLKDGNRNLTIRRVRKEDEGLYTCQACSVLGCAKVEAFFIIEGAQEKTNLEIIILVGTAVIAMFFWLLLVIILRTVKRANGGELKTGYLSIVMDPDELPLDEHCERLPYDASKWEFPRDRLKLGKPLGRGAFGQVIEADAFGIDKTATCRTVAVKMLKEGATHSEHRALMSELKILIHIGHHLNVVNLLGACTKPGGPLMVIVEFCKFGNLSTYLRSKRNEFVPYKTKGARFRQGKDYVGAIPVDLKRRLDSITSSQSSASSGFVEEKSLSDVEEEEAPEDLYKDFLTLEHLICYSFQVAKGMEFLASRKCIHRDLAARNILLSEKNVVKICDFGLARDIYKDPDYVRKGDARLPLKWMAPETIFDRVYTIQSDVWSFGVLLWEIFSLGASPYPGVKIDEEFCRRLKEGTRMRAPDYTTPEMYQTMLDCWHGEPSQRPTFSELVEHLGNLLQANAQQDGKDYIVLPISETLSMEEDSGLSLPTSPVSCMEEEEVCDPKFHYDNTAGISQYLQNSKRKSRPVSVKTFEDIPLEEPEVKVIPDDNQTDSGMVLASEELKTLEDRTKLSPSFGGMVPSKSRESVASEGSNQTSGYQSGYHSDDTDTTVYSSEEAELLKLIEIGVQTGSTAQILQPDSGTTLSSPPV
The target of data set [3] is Vascular endothelial growth factor receptor 1 (Homo sapiens, UniProt P17948). Put plainly: Inhibition of VEGFR1 by enzymatic assay.
Vascular endothelial growth factor receptor 1, sequence (P17948 whole entry): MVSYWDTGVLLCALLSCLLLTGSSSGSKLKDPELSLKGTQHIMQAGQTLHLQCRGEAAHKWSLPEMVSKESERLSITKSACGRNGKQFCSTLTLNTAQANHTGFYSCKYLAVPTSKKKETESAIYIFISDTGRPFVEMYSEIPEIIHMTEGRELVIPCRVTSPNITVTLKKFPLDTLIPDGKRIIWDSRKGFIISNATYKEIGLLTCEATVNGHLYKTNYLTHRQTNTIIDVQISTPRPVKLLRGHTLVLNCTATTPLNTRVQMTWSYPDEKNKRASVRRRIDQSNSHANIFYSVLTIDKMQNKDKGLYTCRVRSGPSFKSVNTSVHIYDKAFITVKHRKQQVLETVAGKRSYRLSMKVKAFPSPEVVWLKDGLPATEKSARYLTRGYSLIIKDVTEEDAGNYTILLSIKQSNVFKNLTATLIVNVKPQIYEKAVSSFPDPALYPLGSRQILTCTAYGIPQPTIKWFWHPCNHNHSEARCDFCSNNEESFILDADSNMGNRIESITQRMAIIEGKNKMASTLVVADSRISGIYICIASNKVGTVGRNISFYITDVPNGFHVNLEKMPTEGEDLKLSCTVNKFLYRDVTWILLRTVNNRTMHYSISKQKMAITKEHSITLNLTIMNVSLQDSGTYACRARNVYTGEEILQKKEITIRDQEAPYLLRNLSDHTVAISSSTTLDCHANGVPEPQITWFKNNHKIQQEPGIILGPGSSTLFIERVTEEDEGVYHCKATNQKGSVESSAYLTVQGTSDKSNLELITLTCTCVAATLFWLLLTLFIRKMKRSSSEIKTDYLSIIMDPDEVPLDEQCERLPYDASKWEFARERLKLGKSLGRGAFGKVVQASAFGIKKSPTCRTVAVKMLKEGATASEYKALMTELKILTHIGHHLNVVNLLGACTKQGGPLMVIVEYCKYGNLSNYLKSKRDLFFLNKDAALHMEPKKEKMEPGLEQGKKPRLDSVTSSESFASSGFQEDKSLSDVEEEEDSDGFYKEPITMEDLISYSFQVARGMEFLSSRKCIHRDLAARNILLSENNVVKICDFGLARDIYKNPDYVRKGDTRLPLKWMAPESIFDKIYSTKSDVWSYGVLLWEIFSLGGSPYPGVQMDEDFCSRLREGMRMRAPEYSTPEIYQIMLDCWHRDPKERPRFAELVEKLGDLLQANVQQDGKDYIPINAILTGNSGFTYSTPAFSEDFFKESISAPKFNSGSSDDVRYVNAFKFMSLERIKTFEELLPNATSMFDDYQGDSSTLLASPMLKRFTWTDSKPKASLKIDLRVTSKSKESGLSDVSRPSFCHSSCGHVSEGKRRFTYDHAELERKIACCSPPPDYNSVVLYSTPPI
Data set [4] addresses T1, Vascular endothelial growth factor receptor 2. Put plainly: Inhibition of VEGFR2 in 293 adenovirus transfected kidney cells by cell-based ELISA assay. A general note: ELISA stands for enzyme-linked immunosorbent assay.
The nature of data set [5]: Solubility in water. It is filed as physicochemical.
Data set [6] deals with Receptor-type tyrosine-protein kinase FLT3 (Homo sapiens) (UniProt P36888). Put plainly: Inhibition of Flt3 at 10 uM by HTRF method. Also on record: scale not given: the % may be the effect or the level left.
Receptor-type tyrosine-protein kinase FLT3 (Homo sapiens), sequence (P36888 whole entry): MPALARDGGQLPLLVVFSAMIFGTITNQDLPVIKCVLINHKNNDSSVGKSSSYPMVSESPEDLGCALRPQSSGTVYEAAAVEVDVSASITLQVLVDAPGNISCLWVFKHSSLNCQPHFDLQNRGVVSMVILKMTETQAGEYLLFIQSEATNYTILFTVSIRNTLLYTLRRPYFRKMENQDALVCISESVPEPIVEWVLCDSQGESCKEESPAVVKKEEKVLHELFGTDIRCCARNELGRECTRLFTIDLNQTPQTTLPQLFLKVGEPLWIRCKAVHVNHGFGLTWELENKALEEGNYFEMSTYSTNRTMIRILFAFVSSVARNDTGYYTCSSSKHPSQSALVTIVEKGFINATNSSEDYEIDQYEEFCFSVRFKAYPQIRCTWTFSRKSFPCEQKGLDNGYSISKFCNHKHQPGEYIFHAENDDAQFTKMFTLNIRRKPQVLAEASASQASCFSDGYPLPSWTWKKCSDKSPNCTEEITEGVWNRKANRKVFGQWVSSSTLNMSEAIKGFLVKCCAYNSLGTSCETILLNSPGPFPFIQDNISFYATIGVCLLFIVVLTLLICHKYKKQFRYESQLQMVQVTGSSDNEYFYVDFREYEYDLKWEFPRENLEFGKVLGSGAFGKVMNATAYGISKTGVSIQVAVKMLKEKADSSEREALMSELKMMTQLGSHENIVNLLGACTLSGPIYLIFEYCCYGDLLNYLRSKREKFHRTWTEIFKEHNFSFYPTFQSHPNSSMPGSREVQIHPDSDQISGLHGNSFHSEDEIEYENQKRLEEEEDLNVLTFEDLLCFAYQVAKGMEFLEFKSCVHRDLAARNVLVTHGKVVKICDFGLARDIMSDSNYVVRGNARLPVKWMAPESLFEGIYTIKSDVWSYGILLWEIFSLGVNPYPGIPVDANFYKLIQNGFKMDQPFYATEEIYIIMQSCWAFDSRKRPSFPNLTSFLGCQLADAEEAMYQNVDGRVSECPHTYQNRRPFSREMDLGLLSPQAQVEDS
In data set [7] the target is Epidermal growth factor receptor (Homo sapiens) (UniProt P00533). In words: […] against ErbB1 at 10 uM by HTRF method.
Data set [8] deals with Receptor tyrosine-protein kinase erbB-2 (Homo sapiens) (UniProt P04626). Put plainly: […] against ErbB2 at 10 uM by HTRF method.
Receptor tyrosine-protein kinase erbB-2 (Homo sapiens), sequence (P04626 whole entry): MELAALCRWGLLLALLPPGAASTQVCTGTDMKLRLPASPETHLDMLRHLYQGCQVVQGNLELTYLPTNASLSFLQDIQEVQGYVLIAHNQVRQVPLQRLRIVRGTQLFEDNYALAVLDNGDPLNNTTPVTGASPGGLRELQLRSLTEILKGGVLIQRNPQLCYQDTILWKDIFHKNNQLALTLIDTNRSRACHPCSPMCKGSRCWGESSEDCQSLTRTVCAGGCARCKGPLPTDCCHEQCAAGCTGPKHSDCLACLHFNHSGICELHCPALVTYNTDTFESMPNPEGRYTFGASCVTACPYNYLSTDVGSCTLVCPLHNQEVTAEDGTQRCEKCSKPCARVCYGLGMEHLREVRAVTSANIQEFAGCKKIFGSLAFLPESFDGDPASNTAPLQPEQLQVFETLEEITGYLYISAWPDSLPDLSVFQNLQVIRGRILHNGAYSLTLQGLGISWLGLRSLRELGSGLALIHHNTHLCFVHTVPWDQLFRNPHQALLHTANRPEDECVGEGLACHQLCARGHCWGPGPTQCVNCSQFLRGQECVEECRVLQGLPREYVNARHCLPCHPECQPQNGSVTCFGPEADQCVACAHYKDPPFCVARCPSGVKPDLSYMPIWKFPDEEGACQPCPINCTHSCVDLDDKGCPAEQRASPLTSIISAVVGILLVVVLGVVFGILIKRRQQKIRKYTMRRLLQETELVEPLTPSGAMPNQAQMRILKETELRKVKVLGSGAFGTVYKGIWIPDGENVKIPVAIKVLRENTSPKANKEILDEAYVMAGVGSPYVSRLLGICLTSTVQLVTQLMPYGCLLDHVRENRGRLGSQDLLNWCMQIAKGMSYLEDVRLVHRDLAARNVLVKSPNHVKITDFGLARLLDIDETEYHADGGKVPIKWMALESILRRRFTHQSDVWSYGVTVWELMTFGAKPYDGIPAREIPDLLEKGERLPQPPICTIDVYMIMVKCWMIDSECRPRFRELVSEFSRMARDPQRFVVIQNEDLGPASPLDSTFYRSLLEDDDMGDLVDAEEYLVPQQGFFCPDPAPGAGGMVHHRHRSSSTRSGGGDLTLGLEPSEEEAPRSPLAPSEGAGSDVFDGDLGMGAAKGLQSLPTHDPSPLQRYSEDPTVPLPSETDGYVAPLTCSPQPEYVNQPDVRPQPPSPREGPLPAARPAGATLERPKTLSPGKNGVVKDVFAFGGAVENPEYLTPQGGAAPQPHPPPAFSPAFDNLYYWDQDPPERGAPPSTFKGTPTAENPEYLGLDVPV
For data set [9], the target named is T2, Ephrin type-B receptor 4 (Homo sapiens) (UniProt P54760).
T2 sequence (whole entry): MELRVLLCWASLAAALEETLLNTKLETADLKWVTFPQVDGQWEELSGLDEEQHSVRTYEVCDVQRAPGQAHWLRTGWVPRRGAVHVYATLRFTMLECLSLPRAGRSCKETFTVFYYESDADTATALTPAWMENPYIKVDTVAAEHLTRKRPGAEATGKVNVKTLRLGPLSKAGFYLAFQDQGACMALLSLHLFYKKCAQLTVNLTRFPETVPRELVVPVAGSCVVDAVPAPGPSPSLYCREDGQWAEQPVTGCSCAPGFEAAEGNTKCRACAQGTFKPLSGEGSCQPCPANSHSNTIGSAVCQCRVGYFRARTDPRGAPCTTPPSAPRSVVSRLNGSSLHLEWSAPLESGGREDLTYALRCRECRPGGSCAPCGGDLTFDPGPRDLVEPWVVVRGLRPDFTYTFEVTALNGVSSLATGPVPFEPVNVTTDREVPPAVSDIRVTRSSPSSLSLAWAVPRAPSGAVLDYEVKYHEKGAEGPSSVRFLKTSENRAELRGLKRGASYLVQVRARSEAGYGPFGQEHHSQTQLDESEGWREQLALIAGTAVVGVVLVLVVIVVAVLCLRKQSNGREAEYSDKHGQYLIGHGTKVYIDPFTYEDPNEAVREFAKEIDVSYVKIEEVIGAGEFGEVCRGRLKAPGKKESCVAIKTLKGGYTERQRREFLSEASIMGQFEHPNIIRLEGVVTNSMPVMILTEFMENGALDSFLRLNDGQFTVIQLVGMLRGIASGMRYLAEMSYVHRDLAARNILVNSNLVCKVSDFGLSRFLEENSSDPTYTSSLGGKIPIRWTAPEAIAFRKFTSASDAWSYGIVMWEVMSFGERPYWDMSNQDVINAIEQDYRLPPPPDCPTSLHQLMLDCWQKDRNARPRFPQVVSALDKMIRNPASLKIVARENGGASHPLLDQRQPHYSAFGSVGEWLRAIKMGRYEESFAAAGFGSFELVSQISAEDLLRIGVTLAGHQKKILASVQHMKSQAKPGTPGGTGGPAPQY
Put plainly: Percent inhibition against EphB4 at 10 uM by HTRF method. The arrangement: scale not given: the % may be the effect or the level left.

Data set [10] deals with Hepatocyte growth factor receptor (Homo sapiens) (UniProt P08581). Put plainly: Percent inhibition against c-Met at 10 uM by HTRF method. Also on record: scale not given: the % may be the effect or the level left.
Data set [11] deals with cAMP-dependent protein kinase (PKA) (Homo sapiens) (UniProt P22694+P17612+P22612). Put plainly: Inhibition against PKA at 10 uM by HTRF method. The arrangement: scale not given: the % may be the effect or the level left. In kind it is protein assay.
The target in data set [12] is Glycogen synthase kinase-3 beta (Homo sapiens) (UniProt P49841). Put plainly: Inhibition against GSK3-beta at 10 uM by HTRF method. The arrangement: scale not given: the % may be the effect or the level left.
Data set [13] addresses RAC-alpha serine/threonine-protein kinase (Homo sapiens) (UniProt P31749). In words: […] against PKB/Akt at 10 uM by HTRF method.
Data set [14] concerns the target Bcr/Abl fusion protein (Homo sapiens) (UniProt P00519+P11274). Put plainly: Inhibition of bcr-Abl at 10 uM by HTRF method. It is filed as protein assay. Also on record: scale not given: the % may be the effect or the level left.
The target of data set [15] is Cyclin-dependent kinase 2 (Homo sapiens) (UniProt P24941). Put plainly: […] against Cdk2 at 10 uM by HTRF method.
Data set [16] has as its target Cyclin-dependent kinase 5 (Homo sapiens) (UniProt Q00535). In words: […] against Cdk5 at 10 uM by HTRF method.
Data set [17] addresses Fibroblast growth factor receptor 1 (Homo sapiens) (UniProt P11362). Put plainly: Percent inhibition against FGFR1 at 10 uM by HTRF method. The arrangement: scale not given: the % may be the effect or the level left.

A word on the IC50: it is the concentration that gives 50% inhibition. In general, solubility refers to how much of the substance goes into solution per volume. On to `COc1ccc(Nc2nnc(-c3c(NCc4ccncc4)ncn3C)o2)cc1OC`, for which the Activity in data set [1], in [6], in data set [8], in data set [9], in data set [10] and in [11] was under 30% throughout. For the same compound, the Activity in data set [12], in data set [13], in data set [14], in data set [16] and in data set [17] was under 30% in each case. The values for the IC50 in data set [2], in [3] and in data set [4] were 52 nM, 590 nM and 93 nM, respectively. In addition, in [5], the solubility was over 5 mM. Also, the Percent inhibition in data set [7] and in data set [15] was under 30% each time.
